{
  "source": "patent EP1568373A2",
  "about": "“Inducing cellular immune responses to HER2/neu using peptide and nucleic acid compositions” (priority 1999, dated 2001)",
  "key": {"DRB1*0101 (DR1)": {"target": "DRB1*0101 (DR1) (Homo sapiens, UniProt P01903+P01911, A100R/D57E/F55L/F60I/F76Y/I96L/L162R/M171V/P40L/Q125E/R42F/V115G/Y59C)", "test": "HLA class II binding assay, purified HLA molecules", "conditions": "Her2/neu DR supertype primary binding, Table XXVIII"}, "DRB1*0401 (DR4w4)": {"target": "DRB1*0401 (DR4w4) (Homo sapiens, UniProt P01903+P01911, A100K/A169T/F76Y/I96L/K127E/L162R/M171V/N62H/P40V/Q125Y/R42H/S133A/S149N/S66Y/V115G/V209L/W38E)", "test": "HLA class II binding assay, purified HLA molecules", "conditions": "Her2/neu DR supertype primary binding, Table XXVIII"}, "DRB1*0301 (DR3)": {"target": "DRB1*0301 (DR3) (Homo sapiens, UniProt P01903+P01911, A100K/A102G/A103R/A169T/F55Y/I96L/K41T/L162R/M171V/P40S/Q125H/Q178H/Q39Y/R42S/S66N/T106N/T262R/W38E/Y61H)", "sequence (P01903 26-254 limits assumed, other chains not shown)": "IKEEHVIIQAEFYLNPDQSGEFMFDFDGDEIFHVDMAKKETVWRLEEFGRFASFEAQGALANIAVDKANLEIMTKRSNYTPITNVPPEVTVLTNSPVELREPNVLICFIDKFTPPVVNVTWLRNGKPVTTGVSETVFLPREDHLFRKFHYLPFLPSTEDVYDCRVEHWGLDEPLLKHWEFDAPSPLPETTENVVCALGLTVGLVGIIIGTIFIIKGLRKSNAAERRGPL", "test": "HLA class II binding assay, purified HLA molecules", "conditions": "Table XXX"}, "CD8+ T-cells": {"tested_on": "CD8+ T-cells", "test": "Primary in vitro CTL induction with peptide-pulsed DC, 51Cr release and in situ IFNγ assays", "type": "cell-based, human", "description": "The colon adenocarcinoma cell lines SW403 and HT-29 were obtained from the American Type Culture Collection (ATCC) (Rockville, MD). The cell lines that were obtained from ATCC were maintained under the culture conditions recommended by the supplier. […] The colon cancer cells were treated with 100U/ml IFNγ (Genzyme) for 48 hours at 37°C before use as targets in the ^51Cr release and in situ IFNγ assays.\nThe monocytes were purified by plating 10 x 10^6 PBMC/well in a 6-well plate. After 2 hours at 37°C, the non-adherent cells were removed by gently shaking the plates and aspirating the supernatants. The wells were washed a total of three times with 3 ml RPMI to remove most of the non-adherent and loosely adherent cells. Three ml of complete medium containing 50 ng/ml of GM-CSF and 1,000 U/ml of IL 4 were then added to each well. […]\nInduction of CTL with DC and Peptide: CD8+ T-cells were isolated by positive selection with Dynal immunomagnetic beads (Dynabeads® M-450) and the detacha-bead® reagent. […] The DC were collected and centrifuged at 1300 rpm for 5-7 minutes, washed once with PBS with 1% BSA, counted and pulsed with 40µg/ml of peptide at a cell concentration of 1-2×10^6/ml in the presence of 3µg/ml ß2- microglobulin for 4 hours at 20°C. The DC were then irradiated (4,200 rads), washed 1 time with medium and counted again. […]"}},
  "note": "Where no end group is shown, it is not given here.",
  "data": [
    {"compound": "CSCC[C@H](NC(=O)[C@@H](NC(=O)[C@H](Cc1ccc(O)cc1)NC(=O)[C@H](C)NC(=O)[C@H](CCC(=O)O)NC(=O)[C@@H](N)CC(=O)O)C(C)C)C(=O)N[C@@H](C)C(=O)NCC(=O)N[C@H](C(=O)NCC(=O)N[C@@H](CO)C(=O)N1CCC[C@H]1C(=O)N[C@@H](Cc1ccc(O)cc1)C(=O)N[C@H](C(=O)N[C@@H](CO)C(=O)O)C(C)C)C(C)C", "note": "[Her2/neu.769]", "values": [
      {"measurement": "IC50", "setting": "DRB1*0101 (DR1)", "value": 100, "unit": "nM"},
      {"measurement": "IC50", "setting": "DRB1*0401 (DR4w4)", "value": 196, "unit": "nM"}
    ]},
    {"compound": "CSCC[C@H](NC(=O)[C@H](CCCNC(=N)N)NC(=O)[C@H](CO)NC(=O)[C@H](Cc1ccccc1)NC(=O)[C@H](CCC(=O)O)NC(=O)[C@H](CO)NC(=O)[C@@H](NC(=O)[C@H](CC(C)C)NC(=O)[C@H](CCC(=O)O)NC(=O)[C@H](CCCNC(=N)N)NC(=O)[C@@H](N)Cc1ccccc1)C(C)C)C(=O)N[C@@H](C)C(=O)N[C@@H](CCCNC(=N)N)C(=O)N[C@@H](CC(=O)O)C(=O)N1CCC[C@H]1C(=O)O", "note": "[Her2/neu.969]", "values": [
      {"measurement": "IC50", "setting": "DRB1*0301 (DR3)", "value": 4220, "unit": "nM"}
    ]},
    {"compound": "CC(C)C[C@H](NC(=O)[C@H](CO)NC(=O)CNC(=O)[C@H](Cc1ccccc1)NC(=O)[C@@H](NC(=O)[C@@H](N)CCCCN)C(C)C)C(=O)N[C@@H](C)C(=O)N[C@@H](Cc1ccccc1)C(=O)N[C@H](C(=O)O)C(C)C", "note": "[V2V9]", "values": [
      {"measurement": "recognition of wild-type peptide and of tumor targets that endogenously express HER2/neu by the induced CTLs", "setting": "CD8+ T-cells; expanded positive cultures", "value": "also recognized the target tumor cells"},
      {"measurement": "induction of peptide-specific CTL response", "setting": "CD8+ T-cells; normal donors, peptide-pulsed targets", "value": "induced peptide-specific CTLs"}
    ]},
    {"compound": "SLSFLQDIQEVQGYV [Her2/neu.70]", "values": [
      {"measurement": "IC50", "setting": "DRB1*0301 (DR3)", "value": 5770, "unit": "nM"}
    ]}
  ]
}
